# Measured values from patent US20080177101A1, “Synthesis of isotopically labeled alpha-keto acids and esters” (Spectra Gases, Inc., priority 2006, published 2008).
# Key:
# [1] = Concentration studies: stability of pyruvic acid solutions in water at higher concentrations; type: physicochemical; parameters: unit not given here; settings: light, about 22° C. to about 26° C.
# Protocol: Each of these commercial solutions were subjected to light for 6-weeks at temperatures ranging from about 22° C. to about 26° C. At each of the concentrations listed below, it was discovered that the pyruvic acid solutions were stable.
# [2] = background description; cited from earlier work
# [3] = Shelf storage stability of [1-^13C] pyruvic acid in water, 1H and 13C NMR spectra compared; type: physicochemical; settings: 0.025M in water
# Protocol: Samples of isotopically labeled [1-^13C] pyruvic acid, having Formula VI and synthesized as discussed immediately below, were subjected to various conditions as depicted in Table 1, in order to establish the compound's shelf storage stability.
# The resulting [1-^13C] pyruvic acid was tested as follows in Table 1:
# ^1H and ^13C NMR spectra of the distilled [1-^13C] pyruvic acid in water (0.025M) were acquired at the onset of the study and prior to exposing the samples to the various conditions specified in Table 1. ^1H and ^13C NMR spectra were again acquired for each of the samples after being exposed to the aforementioned conditions on a weekly basis for 12-weeks. The spectra acquired after exposure were compared visually and appeared to remain unchanged as compared with the spectra acquired prior to exposure, i.e. the spectra were as expected for [1-^13C] pyruvic acid in water. As such, it was concluded that each of the samples were shelf stable. Similarly, ^1H and ^13C NMR spectra acquired after 17-weeks of exposure remained unchanged as compared with the spectra acquired prior to exposure.
# [4] = Titration of aqueous sample 4 with sodium hydroxide, composition by HPLC; type: physicochemical; settings: sample 4 titrated with sodium hydroxide to pH of about 6.2
# From the text: The molarity of sample 4 was confirmed to be 0.025M by titrating the aqueous sample with sodium hydroxide. […] It was also discovered that at pHs greater than 5.8, such as at a pH of about 6.2, some of the pyruvic acid was present in the form of a dimerized sodium salt. […] As such, it was discovered that to minimize dimmer formation, it may be necessary to control the pH of [1-^13C] pyruvate solutions, and in particular, any aqueous solution should be maintained at a pH of about 6.5 or less, more preferably 6.0 or less, and even more preferably 5.8 or less.
# [5] = Sample 3, Room temperature (about 22° C. to about 26° C.), Dark
# [6] = Sample 4, Room temperature (about 22° C. to about 26° C.), Light
Stability After 6-weeks ([1]; Concentration 2.3 in water),Stability After 6-weeks ([1]; Concentration 2.8 in water),Stability After 6-weeks ([1]; Concentration 3.8 in water),Stability After 6-weeks ([1]; Concentration 5.7 in water),Stability After 6-weeks ([1]; Concentration 11.3 in water),"Shelf stability, 12 weeks ([3]; Sample 1, −10° C., Dark)","Shelf stability, 17 weeks ([3]; Sample 1, −10° C., Dark)","Shelf stability, 12 weeks ([3]; Sample 2, 4° C., Dark)","Shelf stability, 17 weeks ([3]; Sample 2, 4° C., Dark)","Shelf stability, 12 weeks [3, 5]","Shelf stability, 17 weeks [3, 5]","Shelf stability, 12 weeks [3, 6]","Shelf stability, 17 weeks [3, 6]",Share of the pyruvic acid accounted for by dimerized salt [4],SMILES,Solubility in water [2]
Stable,Stable,Stable,Stable,Stable,–,–,–,–,–,–,–,–,–,"CC(=O)C(=O)O [Pyruvic acid, 2-oxopropanoic acid]",soluble in water
–,–,–,–,–,Stable,Stable,Stable,Stable,Stable,Stable,Stable,Stable,4-6%,CC(=O)[13C](=O)O [[1-^13C] pyruvic acid],–
